What was measured:
[1] = test system: THP-1 cells; experiment: Microarray of differentially expressed genes in THP-1 cells, +/- LPS, +/- Clarithromycin or FMA9045 (Appendix B, Appendix F); format: cell-based; conditions: for Total # Differential Genes (95% confidence): THP-1, min fold change threshold 1.5 (Clari), 1.3 (FMA)
Text: (§1) The data for each cell line (A549 and THP-1) are presented in Appendices A and B. For each cell line, the data for all of the hybridizations are represented together in the same table. For each hybridization, there are two columns: the weighted mean ratio (wtd mean ratio) and the minimum fold change (min fold change). The “min fold change” represents the minimum change in expression that meets the 95% confidence threshold. It can be estimated from the log ratio and standard deviation, assuming that the uncertainty in the ratio is normally distributed. […] See also Cheng Li and Wing Hung Wong, “Model-based analysis of oligonucleotide arrays: model validation, design issues and standard error application,” Genome Biology 2001 2(8):research0032.1-0032.11 (published 3 Aug. 2001).
(§2) The analysis method to generate these tables was similar for A549 and THP-1, cells. […] It is important to note that the fold change threshold is an absolute number, and the direction of change (increased or decreased expression) must be determined by the looking at the weighted mean ratio. The significance threshold criteria are included in parentheses in each “min fold change” column. The weighted mean ratios representing significant differentials (95% confidence, p value <0.05) are in bold. The “Spot IDs” correspond to publicly available cDNA sequences for the region of the gene represented at that spot on the microarray chip.
(§3) For the A549 and THP-1 cell lines (Appendix A and B, respectively), the first table for each cell line (“total differentials”) represents all of the genes that show differential expression in at least one of the hybridizations. The second table for A549 and THP-1 cells (“drug effects, sum ≧4.5” and “drug effects, sum ≧5”, respectively) has an additional final column, “sum of min fold change.” This column represents the sum of the minimum fold changes for all of the groups except the stimulus alone. This column was used to rank the genes in order of the greatest global drug effect, independent of whether the drug used was Clarithromycin or FMA9045 and independent of stimulus effect.
For THP-1 cells, a sum min fold change ≧5.0 was used as the threshold for ranking the most highly regulated drug effects. In both tables in Appendix B, the genes that meet this criterion (sum ≧5) are in bold and in italics. A larger sum min fold change threshold was used for THP-1 cells, because the macrolide response in this cell line was more robust than that in A549 cells.
The influence of a macrolide compound on the level of expression of the gene of the material related to inflammatory disease of the lung is summarized in Appendix F. In Appendix F, ‘+/−Clari, wtd means’ denotes gene induction (suppression) when clarithromycin is added to THP-1 cells, and the larger the figure, the more the gene is expressed. Furthermore, ‘+LPS+/−Clari, wtd means’ denotes gene induction (suppression) when clarithromycin is added to LSP-stimulated THP-1 cells, and the smaller the figure, the more the gene expression is suppressed.

[2] = test system: tobacco smoke-induced pulmonary emphysema; experiment: Model mice with tobacco smoke-induced pulmonary emphysema; format: in vivo; conditions: for pulmonary alveolus size: 6 months, mean ± SE; for pulmonary emphysema rate: relative to non-smoking
Procedure: The model mice with tobacco smoke-induced pulmonary emphysema mimicking human pulmonary emphysema were constructed according to the method as described in Hautamaki, R. D. et al., Science 1997, 277: 2002-2004 or Shapiro, S. D. et al., Am. […] Specifically, C57black/6 female mice of 12-weeks old were exposed to tobacco smoke at two cigarettes per day, 6 days per week for 6 months.
(§4) Administration of clarithromycin was carried out orally at the rate of 25, 50 or 100 […] twice daily (morning and evening) during the tobacco smoke exposure period. The plasma AUC0-8 of clarithromycin obtained when 50 mg/kg was singly administered to the mice was 2.677 μg·hr/ml while the plasma AUC0-8 of clarithromycin obtained when 200 mg of clarithromycin was singly administered to a normal human subject was 8.98 μg·hr/ml. The former concentration was substantially lower than the latter one and was an adequate concentration to be used clinically.
The index of the improvement to the pulmonary emphysema condition followed the mothod as described in Hautamaki, R. D. et al., ibid. or Shapiro, S. D. et al., ibid.
Hematoxylin eosin-stained pathological specimens were prepared from the model mice and ten visual fields under a microscope were randomly selected, where the average sizes of pulmonary alveoli were measured. An increase in the average size of pulmonary alveolus is considered as an index of the destruction of pulmonary alveoli, i.e., the pulmonary emphysema condition.
The cell counts of inflammatory cells (microphages and neutrophiles) in the bronchoalveolar lavage fluids after six months' exposure were measured to provide an index of the inflammatory condition in the model mice with tobacco smoke-induced pulmonary emphysema.
It has been reported that as pulmonary emphysema progresses, pulmonary functions deteriorate. It has also been known that the pulmonary compliance, which is an index of pulmonary functions, increases in model mice with tobacco smoke-induced pulmonary emphysema. Thus, the pulmonary compliance was measured in the model mice with tobacco smoke-induced pulmonary emphysema after six months' exposure.

[3] = test system: A549 cells; experiment: Microarray of differentially expressed genes in A549 cells, +/- IL-1β, +/- Clarithromycin or FMA9045 (Appendix A); format: cell-based; conditions: for Total # Differential Genes (95% confidence): A549, min fold change threshold 1.3
Text: as §1, §2, §3
As noted above, a sum min fold change ≧4.5 was used as the threshold for ranking the most highly regulated drug effects. In both tables in Appendix A, the genes that meet this criterion (sum ≧4.5) are in bold, and those genes that are bold and italics are the most highly regulated genes and have a min fold change ≧5.0.

[4] = Plasma AUC of clarithromycin after single administration to a normal human subject; format: in vivo; conditions: 200 mg singly administered, read-out: plasma AUC0-8
Procedure: as §4

[5] = Plasma AUC of clarithromycin after single administration to mice; format: in vivo; conditions: C57black/6, mouse, oral, 50 mg/kg singly administered, read-out: plasma AUC0-8
Procedure: as §4

Structure (SMILES): CC[C@H]1OC(=O)[C@H](C)[C@@H](O[C@H]2C[C@@](C)(OC)[C@@H](O)[C@H](C)O2)[C@H](C)[C@@H](O[C@@H]2O[C@H](C)C[C@H](N(C)C)[C@H]2O)[C@](C)(OC)C[C@@H](C)C(=O)[C@H](C)[C@@H](O)[C@]1(C)O [clarithromycin]
- expression of SERPINB3 gene ([1]; Category 1, Appendix F): enhancing the expression
- Total # Differential Genes (95% confidence) ([1]; +/- drug alone): 127
- Total # Differential Genes (95% confidence) ([1]; LPS +/- drug): 120
- LPS +/− clari, wtd mean ratio ([1]; THP-1 cells with LPS, gene given in each table row): 0.9
- LPS +/− clari, wtd mean ratio ([1]; THP-1 cells, LPS stimulated, with vs without clari, gene/spot = table row): 0.9
- Clari treated, wtd mean ratio ([1]; THP-1 cells, no LPS, gene given in each table row): 0.9
- Clari treated, wtd mean ratio ([1]; THP-1 cells, microarray expression ratio, gene/spot = table row): 0.9
- expression of proteinase genes (MMP12, MMP9, MMP19, cathepsin K, cathepsin C) ([1]; induced during inflammatory stimulation, Category 2): suppresses the expression
- expression of the chemokine gene ([1]; induced during inflammatory stimulation, Category 3): suppresses expression
- cell count of macrophages in bronchoalveolar lavage fluids ([2]; after six months' exposure, FIG. 4A): reduced
- cell count of neutrophiles in bronchoalveolar lavage fluids ([2]; after six months' exposure, FIG. 4B): reduced
- pulmonary compliance ([2]; after six months' exposure, FIG. 5): recovered
- improvement factor ([2]; smoking + CAM 25 mg/kg): 47%
- pulmonary alveolus size ([2]; smoking + CAM 25 mg/kg orally twice daily): 35.60 ± 1.425 μm
- pulmonary emphysema rate ([2]; smoking + CAM 25 mg/kg): 10.6%
- improvement factor ([2]; smoking + CAM 50 mg/kg): up to 87%
- pulmonary alveolus size ([2]; smoking + CAM 50 mg/kg orally twice daily): 33.16 ± 0.890 μm
- improvement factor ([2]; smoking + CAM 50 mg/kg, listed as CAM): 85%
- pulmonary emphysema rate ([2]; smoking + CAM 50 mg/kg): 3%
- improvement factor ([2]; smoking + CAM 100 mg/kg): 66.5%
- pulmonary alveolus size ([2]; smoking + CAM 100 mg/kg orally twice daily): 34.35 ± 0.936 μm
- pulmonary emphysema rate ([2]; smoking + CAM 100 mg/kg): 6.7%
- Total # Differential Genes (95% confidence) ([3]; +/- drug alone): 117
- Total # Differential Genes (95% confidence) ([3]; IL-1 +/- drug): 127
- IL1b +/− clari, wtd mean ratio ([3]; A549 cells with IL1b stimulation, microarray expression ratio, gene = SpotID/GeneSymbol): 0.9
- Clari treated, wtd mean ratio ([3]; A549 cells, Clari treated, no IL1, expression ratio of the gene/spot of the table line): 0.9
- IL1b +/− clari, wtd mean ratio ([3]; A549 cells, IL1b stimulated, with vs without clari, gene/spot of the table line): 0.9
- Clari treated, wtd mean ratio ([3]; A549 cells, microarray expression ratio, gene = SpotID/GeneSymbol): 0.9
- Clari treated, wtd mean ratio ([3]; A549 cells, per microarray spot/gene, Clari treated, no IL1): 0.9
- IL1b +/− clari, wtd mean ratio ([3]; A549 cells, per microarray spot/gene, IL1b stimulated, with vs without clari): 0.9
- AUC(0-t) [4]: 8980 ng·h/mL
- AUC(0-t) [5]: 2680 ng·h/mL

— patent US20070172957A1, “Methods of identifying anti-inflammatory macrolides” (TAISHO PHARMACEUTICAL CO., LTD., priority 2004, published 2007)
